Experimental data as given in ChEMBL document CHEMBL1641484, “Efficient synthesis of trisaccharide saponins and their tumor cell killing effects through oncotic necrosis” (Bioorg Med Chem Lett, 2011).
Activity calls are given as the source filed them. The rule behind the calls is not given here.

Legend:
KB [1] = experiment: Cytotoxicity against human KB cells after 4 hrs by MTT assay; type: functional, cell-based
MCF7 [2] = experiment: Cytotoxicity against human MCF7 cells after 4 hrs by MTT assay; type: functional, cell-based; settings: MCF7, 4 h
[3] = Cytotoxicity against human U87 cells after 4 hrs by MTT assay; type: functional, cell-based, U-87MG ATCC; settings: U-87 MG
K562 [4] = experiment: Cytotoxicity against human K562 cells after 4 hrs by MTT assay; type: functional, cell-based; settings: K562, 4 h
[5] = Cytotoxicity against human HL-7702 cells after 4 hrs by MTT assay; type: cell-based; settings: L02, 4 h
MCF7 [6] = experiment: Anticancer activity against human MCF7 cells assessed as loss of microtubules and actin microfilaments after 12 hrs by immunostaining; type: functional, cell-based
K562 [7] = experiment: Anticancer activity against human K562 cells assessed as membrane surface blebs at 5 uM after 30 to 60 mins by time-lapse microscopy; type: functional, cell-based
K562 [8] = experiment: Anticancer activity against human K562 cells assessed as membrane surface blebs at 5 uM after 15 to 30 mins by time-lapse microscopy; type: functional, cell-based
[9] = Cytotoxicity against human EVC304 cells after 4 hrs by MTT assay; type: cell-based; settings: EVC304, 4 h
K562 [10] = experiment: Anticancer activity against human K562 cells assessed as loss of cell membrane integrity after 12 hrs by propidium iodide staining-based fluorescence microscopy; type: functional
MCF7 [11] = experiment: Anticancer activity against human MCF7 cells assessed as loss of plasma membrane integrity at 5 uM after 10 mins by LDH release assay; type: functional, cell-based
MCF7 [12] = experiment: Anticancer activity against human MCF7 cells assessed as loss of plasma membrane integrity at 5 uM after 180 mins by LDH release assay; type: functional, cell-based
K562 [13] = experiment: Anticancer activity against human K562 cells assessed as loss of plasma membrane integrity at 5 uM after 180 mins by LDH release assay; type: functional, cell-based
KB [14] = experiment: Anticancer activity against human KB cells assessed as loss of cell membrane integrity after 12 hrs by propidium iodide staining-based fluorescence microscopy; type: functional
H9c2 = experiment: Cytotoxicity against rat H9c2 cells after 4 hrs by MTT assay; type: cell-based; settings: H9c2, 4 h
K562 [15] = experiment: Anticancer activity against human K562 cells assessed as loss of plasma membrane integrity at 5 uM after 10 mins by LDH release assay; type: functional, cell-based

Compound | IC50 (KB [1]) | IC50 (MCF7 [2]) | IC50 [3] | IC50 (K562 [4]) | IC50 [5] | Activity (MCF7 [6]) | Activity (K562 [7]) | Activity (K562 [8]) | IC50 [9] | Activity (K562 [10]) | Activity (MCF7 [11]) | Activity (MCF7 [12]) | Activity (K562 [13]) | Activity (KB [14]) | IC50 (H9c2) | Activity (K562 [15])
C=C(C)[C@@H]1CC[C@]2(C)CC[C@]3(C)[C@H](CC[C@@H]4[C@@]5(C)CC[C@H](O[C@@H]6O[C@H](CO)[C@H](O)[C@H](O[C@@H]7OC[C@@H](O)[C@H](O)[C@H]7O)[C@H]6O[C@@H]6O[C@@H](C)[C@H](O)[C@@H](O)[C@H]6O)C(C)(C)[C@@H]5CC[C@]43C)[C@@H]12 | > 40 µM | > 40 µM | > 40 µM | > 40 µM |  |  |  |  |  |  |  |  |  |  |  | 
C[C@@H]1O[C@@H](O[C@H]2[C@H](O[C@H]3CC[C@]4(C)[C@H]5CC[C@]6(C)C(=CC[C@@]7(C)CCC(C)(C)C[C@H]76)[C@]5(C)CC[C@H]4C3(C)C)O[C@H](CO)[C@H](O)[C@@H]2O[C@@H]2OC[C@@H](O)[C@H](O)[C@H]2O)[C@H](O)[C@H](O)[C@H]1O | > 40 µM | > 40 µM | > 40 µM | > 40 µM |  |  |  |  |  |  |  |  |  |  |  | 
C[C@@H]1CC[C@@]2(OC1)O[C@H]1C[C@H]3[C@@H]4CC[C@H]5C[C@@H](O[C@@H]6O[C@H](CO)[C@H](O)[C@H](O[C@@H]7OC[C@@H](O)[C@H](O)[C@H]7O)[C@H]6O[C@@H]6O[C@@H](C)[C@H](O)[C@@H](O)[C@H]6O)CC[C@]5(C)[C@H]4CC[C@]3(C)[C@H]1[C@@H]2C | 1.32 µM | 2.61 µM | 3.12 µM | 3.77 µM | 6.92 µM | Active | Active | inactive | 1.03 µM | Active | Active | Active | Active | Active | > 20 µM | Active
C[C@@H]1CC[C@@]2(OC1)O[C@H]1C[C@H]3[C@@H]4CC=C5C[C@@H](O[C@@H]6O[C@H](CO)[C@H](O)[C@H](O[C@@H]7OC[C@@H](O)[C@H](O)[C@H]7O)[C@H]6O[C@@H]6O[C@@H](C)[C@H](O)[C@@H](O)[C@H]6O)CC[C@]5(C)[C@H]4CC[C@]3(C)[C@H]1[C@@H]2C [INDIOSIDE E] | 1.71 µM | 1.82 µM | 2.48 µM | 3.74 µM | 4.81 µM |  |  |  | 3.93 µM |  |  |  |  |  | > 20 µM | 
CC(C)CCC[C@@H](C)[C@H]1CC[C@H]2[C@@H]3CC=C4C[C@@H](O[C@@H]5O[C@H](CO)[C@H](O)[C@H](O[C@@H]6OC[C@@H](O)[C@H](O)[C@H]6O)[C@H]5O[C@@H]5O[C@@H](C)[C@H](O)[C@@H](O)[C@H]5O)CC[C@]4(C)[C@H]3CC[C@]12C | 16.3 µM | 9.48 µM | 16.5 µM | 11.3 µM | > 20 µM |  |  |  | > 20 µM |  |  |  |  |  | > 20 µM | 
CC[C@H](CC[C@@H](C)[C@H]1CC[C@H]2[C@@H]3CC=C4C[C@@H](O[C@@H]5O[C@H](CO)[C@H](O)[C@H](O[C@@H]6OC[C@@H](O)[C@H](O)[C@H]6O)[C@H]5O[C@@H]5O[C@@H](C)[C@H](O)[C@@H](O)[C@H]5O)CC[C@]4(C)[C@H]3CC[C@]12C)C(C)C | > 40 µM | > 40 µM | > 40 µM | > 40 µM |  |  |  |  |  |  |  |  |  |  |  | 
